Results taken from US20090036470A1, “PALIPERIDONE DERIVATIVES” (priority 2007, published 2009).

Test: Conversion of the compound (2) into paliperidone in acidic fluid (dissolution test of the Example 5 tablet in Simulated Gastric Fluid)
Assay type: physicochemical
Description: Conversion of the Compound (2) into Paliperidone in Acidic Fluid
A tablet of the following composition was prepared:
Compound (2), Prosolv HD-90 and low substituted hydroxypropylcellulose were mixed for 10 minutes at 22 rpm in a free fall mixer. The blend was forced sieved over a 250 micron sieve. The blend was then mixed for another 10 minutes in a free fall mixer at 22 rpm. The sodium stearyl fumarate was sieved over an 800 micron sieve and added to the blend. The blend was mixed for another 5 minutes at 22 rpm. Tablets were compressed on the Ek-0. Tablet mass was 100 mg, tablet hardness 30 N and the tablet diameter was 8 mm.
Determination of the dissolution assay at single point or dissolution profile was performed in Simulated Gastric Fluid (SGF) without pepsin (pH=1.2) with the paddle apparatus based on USP <711>, “Apparatus 2”. The dissolution samples were immediately neutralized to pH=7 upon sampling. The amount of paliperidone and compound (2) in the neutralized dissolution samples at the specified time point(s) was determined by HPLC at 280 nm.

For `Cc1nc2n(c(=O)c1CCN1CCC(c3noc4cc(F)ccc34)CC1)CCCC2OC1CCCCO1` (centres unmarked) [Compound (2)], the “time for quantitative conversion into paliperidone” value (Simulated Gastric Fluid without pepsin, pH=1.2, USP paddle apparatus 2, from Example 5 tablet (10.8 mg compound (2)), HPLC at 280 nm, six vessel test, FIGS. 1 and 2) was “approx. 10 minutes” and the “extent of conversion into paliperidone” value (acidic fluid, as shown in FIG. 1) was “quantitatively”.
